# According to US9239334B2, “Fatty acid C16: 1N7-palmitoleate a lipokine and biomarker for metabolic status” (PRESIDENT AND FELLOWS OF HARVARD COLLEGE, priority 2008, dated 2016):
# Entries after “also recorded” stand apart in the source; their conditions may differ.
# Assays:
# SCD-1 promoter = experiment: SCD-1 promoter-driven luciferase reporter in FAO hepatoma cells; type: cell-based, murine
# Protocol: This possibility was tested using several highly sensitive assays to probe the functional profile and activities of plasma lipids. SCD-1 was chosen as a target because it was determined previously that the suppression of hepatic SCD-1 activity is a major alteration in FABP-deficient mice under diet-induced or genetic obesity. Cao et al., 2006; Maeda et al., 2005. Hepatic SCD-1 expression is regulated by a variety of hormones and nutritional factors such as insulin, glucose, and polyunsaturated fatty acids (PUFAs). Ntambi & Miyazaki, 43 Prog. Lipid Res. 91-104 (2004). […] Chu et al., 26 Mol. Cell Biol. 6786-98 (2006); Ntambi, 40 J. Lipid Res. 1549-58 (1999). The 1.5 kb murine SCD-1 promoter was placed in front of a luciferase reporter and inserted into an adenovirus construct. FAO rat hepatoma cells infected with this adenovirus verified the responsiveness of this reporter to PUFA, consistent with previous observations (FIG. 15). Because this assay system was adapted to a microplate format, very small amounts of lipids were required for experimentation. This system allowed direct testing for the effects of lipids extracted from plasma of WT and FABP-deficient animals.
# Lipids were extracted from whole plasma and applied to liver cells expressing the SCD-1 promoter reporter gene. […] To control for any difference in the amount of lipids extracted from plasma and to mimic the in vivo regulation of SCD-1 expression, mixtures of FFAs were generated with the same molar ratio detected in WT or FABP-deficient plasma lipids using the major fatty acids listed in FIG. 2C. […]
# (§1) Samples of 200 μl serum were collected using heparin-coated glass tubes and spun at 13,000 g in a microcentrifuge to separate the plasma. […] Tissue protein lysates was separated with SDS-PAGE gels and phosphorylated or total proteins were detected with the following antibodies: phospho AKT Serine 473, AKT, insulin receptor, phospho-tyrosine (Santa Cruz Biotech.); IRS-1 and IRS-2 (Upstate); phospho-GSK and GSK (Cell Signaling Tech.); phospho-insulin receptor from (Calbiocbem). […]
# [1] = test system: AKT phosphorylation in C2C12 myotubes; experiment: Insulin-stimulated AKT phosphorylation in C2C12 myotubes; type: cell-based
# Protocol: Values of bar plot were determined by phospho-AKT ELISA and corresponding immunoblotting results are shown as Insets.
# The bottom panel is the corresponding immunoblotting of total and phosphorylated AKT in cells treated with pooled lipids.
# To investigate whether plasma lipids also played a role in regulating muscle insulin action, differentiated C2C12 myotubes were treated with lipid extracts from each genotype and the insulin-stimulated AKT phosphorylation determined using an ELISA system.
# The effect of C16:1n7-palmitoleate on muscle insulin signaling was explored by pre-treating C2C12 myotubes with either palmitate or palmitoleate overnight and then stimulating the cells with insulin. […] Conversely, C16:1n7-palmitoleate had little effect on its own in this in vitro setting (FIG. 3G). […]
# as §1
smiles,measurement,setting,value
"CCCCCC/C=C\CCCCCCCC(=O)O [palmitoleate, C16:1n7-palmitoleate]",effect of palmitate on SCD-1 promoter,SCD-1 promoter; cells treated with a mixture of palmitate and palmitoleate,antagonized
same,SCD-1 promoter-driven reporter activity,"SCD-1 promoter; hepatocytes (FAO) treated with a single fatty acid, 300 μM",negatively regulated; also recorded: comparable to arachidonic acid; also recorded: suppressed
same,insulin-stimulated AKT phosphorylation,"[1]; C2C12 myotubes pre-treated with fatty acid overnight, then insulin",little effect
same,palmitate-induced reduction in insulin-stimulated AKT phosphorylation,[1]; co-treated with both palmitate and palmitoleate,rescued
